Laboratory results: patent US20130115671A1, “ENZYMES FROM CONIDIOBOLUS BREFELDIANUS AND PROCESS FOR PREPARATION THEREOF” (Council of Scientific and Industrial Research, priority 2010, published 2013)
Values joined by “and” are separate entries in the source; they are usually repeats but may differ in a detail not shown here. Equal entries are not always repeated. Where two headings read alike, the source gives them in different places.

Legend:
[1] = system: protease secreted by Conidiobolus brefeldianus MTCC 5185; assay: Effect of metals on protease activity; assay type: biochemical; conditions: metal 5 mM in assay mixture, crude protease
[2] = system: protease from Conidiobolus brefeldianus MTCC 5185
Description: This example illustrates the stability of the protease in presence of salts. […] Aliquots were removed at regular intervals of 30 min and residual activity was estimated at 50° C., pH 9.

[3] = system: protease of Conidiobolus brefeldianus MTCC 5185; assay: Effect of inhibitors on protease activity (PMSF, EDTA, iodoacetate, DMSO); assay type: biochemical
Source text: This example illustrates the effect of inhibitors on protease activity of Conidiobolus brefeldianus MTCC 5185. Following inhibitors were studied: phenylmethylsulfonyl fluoride (PMSF), ethylene-diaminetetraacetic acid (EDTA), iodoacetic acid, and dimeth ylsulphoxide (DMSO). The crude culture filtrate grown as described in example 3 was concentrated by ultra-filtration on PM-10 and YM-3 membranes as described in example 27 and used for inhibition studies. Both the protease preparations were pre-incubated in 100 mM Tris-HCl buffer (pH 8.0) with each inhibitor for 1 h and the residual protease activity was measured at 50° C., pH 9.0. Protease without inhibitor served as control.

[4] = system: protease from Conidiobolus brefeldianus MTCC 5185; assay: Stability of protease at 50° C. in presence of trehalose and sorbitol; assay type: physicochemical; set-up: unit not given here
Source text: Stability increased with increasing concentration of trehalose and sorbitol.

[5] = system: protease from Conidiobolus brefeldianus MTCC 5185; assay: Stability of protease at 50° C. in presence of sugar alcohols; assay type: physicochemical; set-up: unit not given here
Description: Ultrafiltered protease as described in example 27 was incubated at 50° C. in presence of glycerol, mannitol, sorbitol and xylitol at 20% concentration up to 3 h. Aliquots were removed at regular intervals of 30 min and residual activity was estimated at 50° C., pH 9.

[6] = 10 mM CaCl2, 0.5M NaCl, 0.5M glycine or 15% (NH4)2SO4, 0 min
[7] = salt concentration as in column head, 30 min
[8] = salt concentration as in column head, 60 min
[9] = salt concentration as in column head, 90 min
[10] = salt concentration as in column head, 120 min
[11] = salt concentration as in column head, 180 min
[12] = pre-incubated 1 h, pH 8.0, 20 mM EDTA, 10 mM Iodoacetate, 1 mM PMSF (in DMSO), DMSO
[13] = ultrafiltered protease with 20% sugar alcohol, 0 min

[Cl-].[Cl-].[Mg+2] [MgCl2]
Relative Activity (%) of protease [1]: 132.24%

O=S(=O)([O-])[O-].[Mg+2] [MgSO4]
Relative Activity (%) of protease [1]: 135.87%

[Cl][Mn][Cl] [MnCl2]
Relative Activity (%) of protease [1]: 104.49%

O=S(=O)([O-])[O-].[Mn+2] [MnSO4]
Relative Activity (%) of protease [1]: 108.39%

[Cl-].[Na+] [NaCl]
Residual Activity (%) of protease at 50° C. [2, 6]: 100.00% | Residual Activity (%) of protease at 50° C. [2, 7]: 77.79% | Residual Activity (%) of protease at 50° C. [2, 8]: 54.11% | Residual Activity (%) of protease at 50° C. [2, 9]: 49.26% | Residual Activity (%) of protease at 50° C. [2, 10]: 48.83% | Residual Activity (%) of protease at 50° C. [2, 11]: 37.44%

[Cl][Ni][Cl] [NiCl2]
Relative Activity (%) of protease [1]: 65.60%

O=S(=O)(F)Cc1ccccc1 [PMSF, phenylmethylsulfonyl fluoride]
inhibition of protease ([3]; 1 mM PMSF): completely inhibited | Inhibition (%) PM-10 Retentate [3, 12]: 79.27% | Inhibition (%) YM-3 Retentate [3, 12]: 90.24%

OC[C@H]1O[C@H](O[C@H]2O[C@H](CO)[C@@H](O)[C@H](O)[C@H]2O)[C@H](O)[C@@H](O)[C@@H]1O [Trehalose, trehalose]
residual activity of protease at 50° C. ([4]; additive 20%, 0 h): 100.00 | residual activity of protease at 50° C. ([4]; additive 20%, 1 h): 78.14 | residual activity of protease at 50° C. ([4]; additive 20%, 2 h): 62.15 | residual activity of protease at 50° C. ([4]; additive 20%, 3 h): 46.12 | residual activity of protease at 50° C. ([4]; additive 20%, 4 h): 39.80 | residual activity of protease at 50° C. ([4]; additive 40%, 0 h): 100.00 | residual activity of protease at 50° C. ([4]; additive 40%, 1 h): 85.27 | residual activity of protease at 50° C. ([4]; additive 40%, 2 h): 75.99 | residual activity of protease at 50° C. ([4]; additive 40%, 3 h): 75.47 | residual activity of protease at 50° C. ([4]; additive 40%, 4 h): 71.11 | residual activity of protease at 50° C. ([4]; additive 50%, 0 h): 100.00 | residual activity of protease at 50° C. ([4]; additive 50%, 1 h): 92.32 | residual activity of protease at 50° C. ([4]; additive 50%, 2 h): 89.98 | residual activity of protease at 50° C. ([4]; additive 50%, 3 h): 85.89 | residual activity of protease at 50° C. ([4]; additive 50%, 4 h): 81.89 | residual activity of protease at 50° C. ([4]; additive 50%, 4 h, listed as trehalose): ~80

[Cl-].[Cl-].[Zn+2] [ZnCl2]
Relative Activity (%) of protease [1]: 60.27%

O=S(=O)([O-])[O-].[Zn+2] [ZnSO4]
Relative Activity (%) of protease [1]: 58.03%

OCC(O)CO [glycerol]
residual activity of protease at 50° C. ([5]; 20% sugar alcohol, 30 min): 74.68 | residual activity of protease at 50° C. ([5]; 20% sugar alcohol, 60 min): 62.01 | residual activity of protease at 50° C. ([5]; 20% sugar alcohol, 90 min): 49.08 | residual activity of protease at 50° C. ([5]; 20% sugar alcohol, 120 min): 36.97 | residual activity of protease at 50° C. ([5]; 20% sugar alcohol, 180 min): 31.73 | residual activity of protease at 50° C. [5, 13]: 100

NCC(=O)O [glycine]
Residual Activity (%) of protease at 50° C. [2, 6]: 100.00% | Residual Activity (%) of protease at 50° C. [2, 7]: 74.85% | Residual Activity (%) of protease at 50° C. [2, 8]: 54.19% | Residual Activity (%) of protease at 50° C. [2, 9]: 43.16% | Residual Activity (%) of protease at 50° C. [2, 10]: 39.89% | Residual Activity (%) of protease at 50° C. [2, 11]: 31.62%

OC[C@@H](O)[C@@H](O)[C@H](O)[C@@H](O)CO [sorbitol]
residual activity of protease at 50° C. ([5]; 20% sugar alcohol, 30 min): 84.01 | residual activity of protease at 50° C. ([5]; 20% sugar alcohol, 60 min): 70.66 | residual activity of protease at 50° C. ([5]; 20% sugar alcohol, 90 min): 62.31 | residual activity of protease at 50° C. ([5]; 20% sugar alcohol, 120 min): 51.57 | residual activity of protease at 50° C. ([5]; 20% sugar alcohol, 180 min): 47 and 47.11 | residual activity of protease at 50° C. [5, 13]: 100 | residual activity of protease at 50° C. ([4]; additive 20%, 0 h): 100.0 | residual activity of protease at 50° C. ([4]; additive 20%, 1 h): 77.28 | residual activity of protease at 50° C. ([4]; additive 20%, 2 h): 49.25 | residual activity of protease at 50° C. ([4]; additive 20%, 3 h): 42.99 | residual activity of protease at 50° C. ([4]; additive 20%, 4 h): 33.11 | residual activity of protease at 50° C. ([4]; additive 40%, 0 h): 100.0 | residual activity of protease at 50° C. ([4]; additive 40%, 1 h): 87.00 | residual activity of protease at 50° C. ([4]; additive 40%, 2 h): 70.69 | residual activity of protease at 50° C. ([4]; additive 40%, 3 h): 61.54 | residual activity of protease at 50° C. ([4]; additive 40%, 4 h): 58.57 | residual activity of protease at 50° C. ([4]; additive 50%, 0 h): 100.0 | residual activity of protease at 50° C. ([4]; additive 50%, 1 h): 91.31 | residual activity of protease at 50° C. ([4]; additive 50%, 2 h): 88.44 | residual activity of protease at 50° C. ([4]; additive 50%, 3 h): 79.44 | residual activity of protease at 50° C. ([4]; additive 50%, 4 h): ~80 | residual activity of protease at 50° C. ([4]; additive 50%, 4 h, listed as Sorbitol): 78.25

OC[C@@H](O)[C@H](O)[C@@H](O)CO [xylitol]
residual activity of protease at 50° C. ([5]; 20% sugar alcohol, 30 min): 76.31 | residual activity of protease at 50° C. ([5]; 20% sugar alcohol, 60 min): 63.36 | residual activity of protease at 50° C. ([5]; 20% sugar alcohol, 90 min): 52.42 | residual activity of protease at 50° C. ([5]; 20% sugar alcohol, 120 min): 44.61 | residual activity of protease at 50° C. ([5]; 20% sugar alcohol, 180 min): 39.25 | residual activity of protease at 50° C. [5, 13]: 100
